Data from EPA's ToxValDB 9.5.

Legend:
Rattus norvegicus [1] = details: oral
Rattus norvegicus [2] = test: FEL; higher = less toxic; details: duration: 14 days, oral, gavage, Crl:CD(SD)
Rattus norvegicus [3] = details: oral, gavage
[4] = acute, gavage, M, Wistar, Central Nervous System: Novel object recognition test
[5] = chronic, duration: 110 days, gavage, M, Sprague-Dawley, Adrenal: Progesterone (P4)
[6] = chronic, duration: 110 days, gavage, M, Sprague-Dawley, Kidney: Blood Urea Nitrogen (BUN) + Kidney: Creatinine (CREAT), Blood + Liver: Alkaline Phosphatase (ALP), Blood + Liver: Bile Acids, Blood
[7] = chronic, duration: 110 days, gavage, M, Sprague-Dawley, Liver: Liver Histopathology + Liver: Triglycerides (TRIG), Blood
[8] = chronic, duration: 110 days, gavage, M, Sprague-Dawley, Liver: Total Bilirubin (TBILI), Blood + Whole Body: Body Weight Change (0-110d) + Whole Body: Body Weight Change (60-90d) + Whole Body: Body…
[9] = chronic, duration: 110 days, gavage, M, Sprague-Dawley, Testis: Testes, Non-Neoplastic Lesions + Whole Body: Body Weight, Absolute
[10] = chronic, duration: 110 days, gavage, M, Sprague-Dawley, Testis: Testosterone (T)
[11] = reproduction developmental, duration: 14 days, gavage, F, Crl:CD(SD), generation: P0, P0: Heart: Heart Weight, Absolute + P0: Liver: Liver Weight, Relative + P0: Pituitary: Pituitary Gland Weight, Absolute + P0: Spleen: Spleen…
[12] = reproduction developmental, duration: 42 days, gavage, M, Crl:CD(SD), generation: P0, P0: Adrenal Gland: Adrenal Gland, Atrophy of the cortex + P0: Adrenal: Adrenal Gland Weight, Absolute + P0: Blood: Albumin/Globulin (A/G) …
[13] = reproduction developmental, duration: 42 days, gavage, M, Crl:CD(SD), generation: P0, P0: Liver: Alkaline Phosphatase (ALP) + P0: Liver: Liver Weight, Relative + P0: Protein Fraction, Globulin alpha-2
[14] = short-term, duration: 2 weeks, gavage, M, Sprague-Dawley, Adrenal: Estradiol + Adrenal: Testosterone (T) + Testis: Testes Weight, Relative + Whole Body: Body Weight, Absolute
[15] = short-term, duration: 2 weeks, gavage, M, Sprague-Dawley, Liver: Cholesterol (CHOL), Total + Liver: Triglycerides (TRIG), Liver + Liver: Triglycerides (TRIG), Serum
[16] = short-term, duration: 2 weeks, gavage, M, Sprague-Dawley, Liver: Cholesterol (CHOL), Total + Pituitary: Leuteinizing hormone (LH) + Testis: Testes Weight, Absolute
[17] = short-term, duration: 2 weeks, gavage, M, Sprague-Dawley, Liver: Liver Weight, Absolute + Liver: Liver Weight, Relative
[18] = short-term, duration: 28 days, F, Sprague-Dawley, Multi-Organ: Cholesterol (CHOL), Total + Multi-Organ: Estradiol + Whole Body: Body Weight, Absolute
[19] = chronic, duration: 110 days, M, Sprague-Dawley, Reproductive: Decreased serum testosterone (44%)
[20] = developmental, duration: 47 days, M/F, Sprague-Dawley, Body Weight: Decreased body weight gain (20-30%) + Developmental: Decreases in pup body weight (only one litter had live pups) + Endocrine: …
[21] = short-term, duration: 14 days, M, Sprague-Dawley, Body Weight: 25% reduction in final body weight + Reproductive: Decreased serum testosterone (38%) and estradiol (~38%), and ultrastructural…
[22] = short-term, duration: 28 days, F, Sprague-Dawley, Endocrine: 40% reduced serum estradiol in pubertal females
[23] = subchronic, duration: 47 days, F, Sprague-Dawley, Hepatic: Single cell necrosis in females / hepatocellular hypertrophy in males and females at […] / bile duct proliferation at […] in …

SMILES: O=C(O)C(F)(F)C(F)(F)C(F)(F)C(F)(F)C(F)(F)C(F)(F)C(F)(F)C(F)(F)C(F)(F)C(F)(F)C(F)(F)F [Perfluorododecanoic acid]
- NOAEL (Rattus norvegicus [1]; acute, gavage, M, Wistar, Brain: Brain Weight, Absolute + Central Nervous System: Elevated platform test (elevated plus test) + Central Nervous System: Forced Swim …): 50 mg/kg-day
- LOAEL (Rattus norvegicus [1]; acute, gavage, M, Wistar, Brain: Brain Weight, Relative + Central Nervous System: Elevated platform test (elevated plus test) + Central Nervous System: Novel object …): 50 mg/kg-day
- LOAEL (Rattus norvegicus [1]; [4]): 20 mg/kg-day
- NOAEL (Rattus norvegicus [1]; [4]): 5 mg/kg-day
- LOAEL (Rattus norvegicus [1]; [5]): 0.2 mg/kg-day
- NOAEL (Rattus norvegicus [1]; [5]): 0.02 mg/kg-day
- LOAEL (Rattus norvegicus [1]; [6]): 0.2 mg/kg-day
- NOAEL (Rattus norvegicus [1]; [6]): 0.05 mg/kg-day
- LOAEL (Rattus norvegicus [1]; chronic, duration: 110 days, gavage, M, Sprague-Dawley, Kidney: Creatine Kinase (CK), Blood + Liver: Albumin (A), Blood + Liver: Liver Weight, Absolute + Liver: Liver Weight, Relative + Liver: Low…): 0.02 mg/kg-day
- NOAEL (Rattus norvegicus [1]; chronic, duration: 110 days, gavage, M, Sprague-Dawley, Leuteinizing hormone (LH) + Pancreas: Insulin + Pituitary: Follicle stimulating hormone (FSH) + Pituitary: Growth Hormone + Prostate: …): 0.5 mg/kg-day
- NOAEL (Rattus norvegicus [1]; chronic, duration: 110 days, gavage, M, Sprague-Dawley, Liver: Alanine Aminotransferase (ALT), Blood + Liver: Aspartate Aminotransferase (AST), Blood + Liver: Cholesterol (CHOL), Total, Blood + …): 0.5 mg/kg-day
- LOAEL (Rattus norvegicus [1]; [7]): 0.05 mg/kg-day
- NOAEL (Rattus norvegicus [1]; [7]): 0.02 mg/kg-day
- LOAEL (Rattus norvegicus [1]; [8]): 0.5 mg/kg-day
- NOAEL (Rattus norvegicus [1]; [8]): 0.2 mg/kg-day
- LOAEL (Rattus norvegicus [1]; [9]): 0.5 mg/kg-day
- NOAEL (Rattus norvegicus [1]; [9]): 0.2 mg/kg-day
- LOAEL (Rattus norvegicus [1]; [10]): 0.2 mg/kg-day
- NOAEL (Rattus norvegicus [1]; [10]): 0.05 mg/kg-day
- NOAEL (Rattus norvegicus [1]; developmental, duration: 14 days, gavage, F, Crl:CD(SD), generation: F1, F1: Whole Body: Body Weight, Fetal, PND0 + F1: Whole Body: Body Weight, Fetal, PND1 + F1: Whole Body: Body Weight, Fetal, PND4): 0.5 mg/kg-day
- NOAEL (Rattus norvegicus [1]; developmental, duration: 14 days, gavage, M, Crl:CD(SD), generation: F1, F1: Whole Body: Body Weight, Fetal, PND0 + F1: Whole Body: Body Weight, Fetal, PND1 + F1: Whole Body: Body Weight, Fetal, PND4): 0.5 mg/kg-day
- NOAEL (Rattus norvegicus [1]; reproduction developmental, duration: 14 days, gavage, F, Crl:CD(SD), generation: P0, P0: Adrenal Gland: Adrenal Gland, Atrophy of the cortex + P0: Bone Marrow: Bone Marrow, Decrease in hematopoiesis + P0: Forestomach: …): 2.5 mg/kg-day
- NOAEL (Rattus norvegicus [1]; reproduction developmental, duration: 14 days, gavage, F, Crl:CD(SD), generation: P0, P0: Adrenal: Adrenal Gland Weight, Absolute + P0: Adrenal: Adrenal Gland Weight, Relative + P0: Blood: Activated Partial Thromboplastin Time…): 0.5 mg/kg-day
- LOAEL (Rattus norvegicus [1]; reproduction developmental, duration: 14 days, gavage, F, Crl:CD(SD), generation: P0, P0: Blood: Hematocrit (HCT) + P0: Blood: Hematocrit (HCT), Recovery + P0: Blood: Hemoglobin (HGB), Recovery + P0: Blood: Mean Corpuscular …): 2.5 mg/kg-day
- LOAEL (Rattus norvegicus [1]; [11]): 0.5 mg/kg-day
- NOAEL (Rattus norvegicus [1]; [11]): 0.1 mg/kg-day
- LOAEL (Rattus norvegicus [1]; reproduction developmental, duration: 14 days, gavage, F, Crl:CD(SD), generation: P0, P0: Multi-Organ: Protein Fraction, Albumin): 0.1 mg/kg-day
- NOAEL (Rattus norvegicus [1]; reproduction developmental, duration: 14 days, gavage, M/F, Crl:CD(SD), generation: F1, F1: Uterus: Fetuses, Dead + F1: Uterus: Fetuses, Live + F1: Whole Body: Live Birth Index + F1: Whole Body: Live Pups on Lactation Day 4 + F1…): 0.5 mg/kg-day
- LOAEL (Rattus norvegicus [1]; [12]): 2.5 mg/kg-day
- NOAEL (Rattus norvegicus [1]; [12]): 0.5 mg/kg-day
- NOAEL (Rattus norvegicus [1]; reproduction developmental, duration: 42 days, gavage, M, Crl:CD(SD), generation: P0, P0: Adrenal: Adrenal Gland Weight, Relative + P0: Basophils + P0: Blood: Activated Partial Thromboplastin Time (APTT) + P0: Blood: …): 2.5 mg/kg-day
- LOAEL (Rattus norvegicus [1]; [13]): 0.5 mg/kg-day
- NOAEL (Rattus norvegicus [1]; [13]): 0.1 mg/kg-day
- LOAEL (Rattus norvegicus [1]; [14]): 5 mg/kg-day
- NOAEL (Rattus norvegicus [1]; [14]): 1 mg/kg-day
- LOAEL (Rattus norvegicus [1]; [15]): 10 mg/kg-day
- NOAEL (Rattus norvegicus [1]; [15]): 5 mg/kg-day
- LOAEL (Rattus norvegicus [1]; [16]): 10 mg/kg-day
- NOAEL (Rattus norvegicus [1]; [16]): 5 mg/kg-day
- LOAEL (Rattus norvegicus [1]; [17]): 5 mg/kg-day
- NOAEL (Rattus norvegicus [1]; [17]): 1 mg/kg-day
- NOAEL (Rattus norvegicus [1]; short-term, duration: 2 weeks, gavage, M, Sprague-Dawley, Pituitary: Follicle stimulating hormone (FSH)): 10 mg/kg-day
- NOAEL (Rattus norvegicus [1]; short-term, duration: 28 days, F, Sprague-Dawley, Leuteinizing hormone (LH) + Multi-Organ: Follicle stimulating hormone (FSH) + Ovary: Follicle Count, Antral + Ovary: Follicle Count, …): 3 mg/kg-day
- LOAEL (Rattus norvegicus [1]; [18]): 3 mg/kg-day
- NOAEL (Rattus norvegicus [1]; [18]): 1.5 mg/kg-day
- FEL (Rattus norvegicus [2]; developmental, F, generation: F1, F1: Whole Body: Body Weight, Fetal, PND0 + F1: Whole Body: Body Weight, Fetal, PND1 + F1: Whole Body: Body Weight, Fetal, PND4): 2.5 mg/kg-day
- FEL (Rattus norvegicus [2]; developmental, M, generation: F1, F1: Whole Body: Body Weight, Fetal, PND1 + F1: Whole Body: Body Weight, Fetal, PND4): 2.5 mg/kg-day
- FEL (Rattus norvegicus [2]; reproduction developmental, F, generation: P0, P0: Adrenal: Adrenal Gland Weight, Absolute + P0: Adrenal: Adrenal Gland Weight, Relative + P0: Blood: Albumin/Globulin (A/G) Ratio + P0: …): 2.5 mg/kg-day
- FEL (Rattus norvegicus [2]; reproduction developmental, M/F, generation: F1, F1: Uterus: Fetuses, Dead + F1: Whole Body: Live Birth Index + F1: Whole Body: Male Pups per Pups Sexed + F1: Whole Body: Number of litters): 2.5 mg/kg-day
- LOAEL (Rattus norvegicus [3]; acute, duration: 1 days, M, Wistar, Body Weight: 44% decrease in body weight gain (measured 10-days post-exposure) + Neurological: Impaired performance on novel object …): 50 mg/kg-day
- NOAEL (Rattus norvegicus [3]; acute, duration: 1 days, M, Wistar, Neurological: No alterations in open field activity + Neurological: No alterations in tests of working memory or depressive behavior): 50 mg/kg-day
- NOAEL (Rattus norvegicus [3]; chronic, duration: 110 days, M, Sprague-Dawley): 0.5 mg/kg-day
- LOAEL (Rattus norvegicus [3]; [19]): 0.2 mg/kg-day
- NOAEL (Rattus norvegicus [3]; [19]): 0.05 mg/kg-day
- LOAEL (Rattus norvegicus [3]; [20]): 2.5 mg/kg-day
- NOAEL (Rattus norvegicus [3]; [20]): 0.5 mg/kg-day
- LOAEL (Rattus norvegicus [3]; [21]): 5 mg/kg-day
- NOAEL (Rattus norvegicus [3]; [21]): 1 mg/kg-day
- NOAEL (Rattus norvegicus [3]; short-term, duration: 14 days, M, Sprague-Dawley, Hepatic: 35% increase in total serum cholesterol at 10 mg/kg/day): 10 mg/kg-day
- NOAEL (Rattus norvegicus [3]; short-term, duration: 14 days, M, Sprague-Dawley, Hepatic: Increased liver weight, increased hepatic triglyceride and cholesterol levels at ?5 mg/kg/day / increased serum triglyceride …): 10 mg/kg-day
- LOAEL (Rattus norvegicus [3]; [22]): 3 mg/kg-day
- NOAEL (Rattus norvegicus [3]; [22]): 1 mg/kg-day
- LOAEL (Rattus norvegicus [3]; subchronic, duration: 47 days, F, Sprague-Dawley, Death: 58% mortality): 2.5 mg/kg-day
- LOAEL (Rattus norvegicus [3]; [23]): 2.5 mg/kg-day
- NOAEL (Rattus norvegicus [3]; [23]): 0.5 mg/kg-day
- NOAEL (Rattus norvegicus [3]; subchronic, duration: 47 days, M/F, Sprague-Dawley): 2.5 mg/kg-day
